Experimental data from patent US9359303B2, “Octahydrobenzoisoquinoline modulators of dopamine receptors and uses therefor” (Purdue Research Foundation, priority 2009, dated 2016).

What was measured:
D1 receptor = D1 receptor (Homo sapiens, UniProt P21728); settings: reported; cited from earlier work
[1] = rodents and non-human primates; iv, sc, po; cited from earlier work
D2 receptor = D2 receptor (Homo sapiens, UniProt P14416); settings: reported; cited from earlier work
[2] = pKa used to separate acids by titration; format: physicochemical
Description: 4-(2,3-Dimethoxyphenyl)but-3-enoic acid (5). Recrystallized paraconic acid 4 (8.6 g, 0.032 mol) was placed into a one-neck round bottom flask and the solid was heated in a 180° C. oil bath for 6 h. Carbon dioxide could be observed bubbling out of the dark brown liquid. The reaction was cooled to room temperature and dissolved in CH2Cl2. The product and any unreacted starting material were extracted into 2 N NaOH (3×100 mL). The pKa of the butenoic acid is approximately 4.2, whereas the pKa of the paraconic acid is approximately 3.6, so the two compounds were separated by titration. The basic aqueous extract was carefully acidified with 2 N HCl, with monitoring by a calibrated pH meter. Once the pH reached 4.5, the solution started becoming slightly cloudy. The solution pH was adjusted to 4.0 and the aqueous solution was extracted with CH2Cl2. After extraction the pH of the aqueous layer increased to around 5 and the titration was repeated until there was no cloudiness at pH 4.0. The starting material was recovered by acidifying to pH 3.0 and extracting with CH2Cl2. The initial organic extracts were dried over Na2SO4, and evaporated under reduced pressure to yield pure 5 that solidified under reduced pressure as a yellow solid (4.7 g, 0.021 mol, 65.2%) that was used without further purification; mp 84-86° C. […]

D2-like receptor sites = D2-like receptor sites (Sus scrofa, UniProt A0ACM8QMZ9); assay: Competitive binding, porcine striatal tissue, [3H]-spiperone (50 nM ketanserine present); settings: porcine striatal membranes; read-out: Kd for D2-like receptor sites (receptor isotherm)
D2-like receptor sites, sequence (A0ACM8QMZ9 entry or part of it): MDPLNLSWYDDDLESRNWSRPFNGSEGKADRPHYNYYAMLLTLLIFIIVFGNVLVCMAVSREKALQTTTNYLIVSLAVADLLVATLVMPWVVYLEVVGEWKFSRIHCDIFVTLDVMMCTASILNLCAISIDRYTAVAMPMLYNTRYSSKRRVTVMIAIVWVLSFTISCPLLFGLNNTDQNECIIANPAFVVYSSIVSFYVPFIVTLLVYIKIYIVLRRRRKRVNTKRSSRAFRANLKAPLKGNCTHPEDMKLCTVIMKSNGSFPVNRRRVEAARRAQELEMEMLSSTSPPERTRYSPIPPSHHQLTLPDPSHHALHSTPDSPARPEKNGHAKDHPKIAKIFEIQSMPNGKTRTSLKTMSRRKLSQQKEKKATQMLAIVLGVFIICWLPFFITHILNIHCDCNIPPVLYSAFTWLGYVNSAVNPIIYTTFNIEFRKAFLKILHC
Description: Competitive Binding Experiments. Porcine striatal tissue is obtained from the Purdue Butcher Block and prepared as described in the literature. Striatal tissue is homogenized using a potter-type homogenizer, suspended in homogenization buffer (20 mM Hepes, 0.32 M sucrose, pH 7.4), and spun at 1,000 g for 10 minutes at 4° C. The pellet (P1) is discarded and supernatant is centrifuged at 30,000 g for 10 minutes at 4° C. The resultant pellet (P2) is resuspended in 50 mM Tris buffer (pH 7.4) by briefly using a Kinematica homogenizer, and then centrifuged at 30,000 g for 30 minutes at 4° C. This pellet is resuspended again in 50 mM Tris buffer, dispensed into 1 mL aliquots, and centrifuged for 10 min. at 13,000 g at 4° C. A BSA protein assay is used to determine the final weight of the pellets. Supernatant is aspirated and pellets are frozen at −80° C. until use.
Receptor and competitive binding experiments are performed as described in the literature. Pellets are resuspended (1 mL/mg) in receptor binding buffer (50 mM Hepes, 4 mM MgCl2, pH 7.4) and 75 μg protein is used per well. […] All binding experiments are incubated for 30 minutes at 37° C., and are terminated and counted in a similar fashion to the cAMP binding assays.
Data Analysis. […] Ki values are calculated from IC50 using the Cheng-Prusoff equation.

D1 receptor, sequence (P21728 whole entry): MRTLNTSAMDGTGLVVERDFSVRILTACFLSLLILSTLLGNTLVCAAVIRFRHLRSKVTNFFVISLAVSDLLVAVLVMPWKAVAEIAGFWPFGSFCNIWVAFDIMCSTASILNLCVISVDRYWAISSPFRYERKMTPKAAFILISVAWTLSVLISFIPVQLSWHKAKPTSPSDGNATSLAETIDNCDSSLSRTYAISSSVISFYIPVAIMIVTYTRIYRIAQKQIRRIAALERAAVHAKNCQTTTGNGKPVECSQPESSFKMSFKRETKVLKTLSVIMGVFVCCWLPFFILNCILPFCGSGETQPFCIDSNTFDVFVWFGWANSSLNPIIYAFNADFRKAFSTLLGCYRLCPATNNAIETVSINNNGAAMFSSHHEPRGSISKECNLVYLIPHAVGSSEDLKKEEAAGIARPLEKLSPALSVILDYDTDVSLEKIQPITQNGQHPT
D2 receptor, sequence (P14416 whole entry): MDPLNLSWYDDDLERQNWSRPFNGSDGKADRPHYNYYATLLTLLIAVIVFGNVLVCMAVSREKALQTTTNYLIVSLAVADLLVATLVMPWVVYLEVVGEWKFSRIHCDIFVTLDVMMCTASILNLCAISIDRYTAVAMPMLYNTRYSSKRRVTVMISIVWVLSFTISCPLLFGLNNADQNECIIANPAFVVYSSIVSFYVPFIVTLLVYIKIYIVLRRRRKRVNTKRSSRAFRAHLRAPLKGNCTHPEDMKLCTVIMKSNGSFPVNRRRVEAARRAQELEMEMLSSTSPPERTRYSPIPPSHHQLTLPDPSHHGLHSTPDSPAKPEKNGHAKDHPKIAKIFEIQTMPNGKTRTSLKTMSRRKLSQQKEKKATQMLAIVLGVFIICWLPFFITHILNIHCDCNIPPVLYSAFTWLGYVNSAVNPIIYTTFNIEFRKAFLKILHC

Row | SMILES | melting point [°C] | pKa [2] | other results
1 | Cl.Oc1cc2c(cc1O)[C@@H]1c3ccccc3CN[C@H]1CC2 (racemic) [dihydrexidine, (±)-trans-10,11-dihydroxy-5,6,6a,7,8,12b-hexahydrobenzo[a]phenanthridine hydrochloride] | – | – | affinity for the D1 receptor (D1 receptor): 2.2 nM; plasma clearance [1]: cleared rapidly from plasma; affinity for the D2 receptor (D2 receptor): 183 nM
2 | Br.Oc1ccc2c(c1O)CC[C@H]1CCNC[C@H]21 (relative stereo) [Compound 2, Trans-1,2,3,4,4a,5,6,10b-octahydrobenzo[h]isoquinoline-7,8-diol HBr] | > 250 | – | –
3 | O=C(CCCN1CCC2(CC1)C(=O)NCN2c1ccccc1)c1ccc(F)cc1 [[3H]-spiperone] | – | – | Kd (D2-like receptor sites): 0.075 nM

Further lines, with some results ahead:

Row | melting point [°C] | pKa [2] | SMILES | other results
4 | > 250 | – | Br.Oc1ccc2c(c1O)CC(c1ccccc1)C1CCNCC21 (centres unmarked) [Compound 3, 5-Phenyl-1,2,3,4,4a,5,6,10b-octahydrobenzo[h]isoquinoline-7,8-diol HBr] | –
5 | – | ~3.6 | COc1cccc(C2OC(=O)CC2C(=O)O)c1OC (centres unmarked) [Compound 4, 2-(2,3-Dimethoxyphenyl)-5-oxo-tetrahydrofuran-3-carboxylic acid] | –
6 | – | ~4.2 | COc1cccc(C=CCC(=O)O)c1OC [Compound 5, 4-(2,3-Dimethoxyphenyl)but-3-enoic acid] | –
